# Results taken from ChEMBL document CHEMBL4004803, “Syntheses and antibacterial activity of soluble 9-bromo substituted indolizinoquinoline-5,12-dione derivatives” (Eur J Med Chem, 2017).
# What was measured:
# Format in all cases: functional
# [1] = tested on: Staphylococcus aureus; test: Antibacterial activity against methicillin-resistant Staphylococcus aureus 1012029 clinical isolate after 20 to 24 hrs by two-fold microdilution method
# [2] = tested on: Staphylococcus aureus; test: Antibacterial activity against methicillin-resistant Staphylococcus aureus GLH14 clinical isolate after 20 to 24 hrs by two-fold microdilution method
# [3] = tested on: Staphylococcus aureus; test: Antibacterial activity against methicillin-resistant Staphylococcus aureus 215073 clinical isolate after 20 to 24 hrs by two-fold microdilution method
# [4] = tested on: Staphylococcus aureus; test: Antibacterial activity against methicillin-resistant Staphylococcus aureus 202045 clinical isolate after 20 to 24 hrs by two-fold microdilution method
# [5] = tested on: Staphylococcus aureus; test: Antibacterial activity against methicillin-resistant Staphylococcus aureus 1024010 clinical isolate after 20 to 24 hrs by two-fold microdilution method
# [6] = tested on: Staphylococcus aureus; test: Antibacterial activity against methicillin-resistant Staphylococcus aureus 519030 clinical isolate after 20 to 24 hrs by two-fold microdilution method
# [7] = tested on: Staphylococcus aureus; test: Antibacterial activity against methicillin-resistant Staphylococcus aureus 814039 clinical isolate after 20 to 24 hrs by two-fold microdilution method
# [8] = tested on: Staphylococcus aureus; test: Antibacterial activity against methicillin-resistant Staphylococcus aureus 1026021 clinical isolate after 20 to 24 hrs by two-fold microdilution method
# [9] = tested on: Staphylococcus aureus; test: Antibacterial activity against methicillin-resistant Staphylococcus aureus 908046 clinical isolate after 20 to 24 hrs by two-fold microdilution method
# [10] = tested on: Staphylococcus aureus; test: Antibacterial activity against methicillin-resistant Staphylococcus aureus clinical isolate after 20 to 24 hrs by two-fold microdilution method
# [11] = tested on: Staphylococcus aureus; test: Antibacterial activity against methicillin-resistant Staphylococcus aureus 11703 clinical isolate after 20 to 24 hrs by two-fold microdilution method
# [12] = tested on: Staphylococcus aureus; test: Antibacterial activity against methicillin-resistant Staphylococcus aureus 110414 clinical isolate after 20 to 24 hrs by two-fold microdilution method
# [13] = tested on: Staphylococcus aureus; test: Antibacterial activity against methicillin-resistant Staphylococcus aureus 102849 clinical isolate after 20 to 24 hrs by two-fold microdilution method
# [14] = tested on: Staphylococcus aureus; test: Antibacterial activity against methicillin-resistant Staphylococcus aureus 316038 clinical isolate after 20 to 24 hrs by two-fold microdilution method
# [15] = tested on: Staphylococcus aureus; test: Antibacterial activity against methicillin-resistant Staphylococcus aureus 120827 clinical isolate after 20 to 24 hrs by two-fold microdilution method
# [16] = tested on: Staphylococcus aureus; test: Antibacterial activity against methicillin-resistant Staphylococcus aureus 919205 clinical isolate after 20 to 24 hrs by two-fold microdilution method
# [17] = tested on: Staphylococcus aureus; test: Antibacterial activity against methicillin-resistant Staphylococcus aureus 112430 clinical isolate after 20 to 24 hrs by two-fold microdilution method
# [18] = tested on: Staphylococcus aureus; test: Antibacterial activity against methicillin-resistant Staphylococcus aureus 216054 clinical isolate after 20 to 24 hrs by two-fold microdilution method
# [19] = tested on: Staphylococcus aureus; test: Antibacterial activity against methicillin-resistant Staphylococcus aureus 224001 clinical isolate after 20 to 24 hrs by two-fold microdilution method
# [20] = tested on: Staphylococcus aureus; test: Antibacterial activity against methicillin-resistant Staphylococcus aureus 822030 clinical isolate after 20 to 24 hrs by two-fold microdilution method
# [21] = tested on: Staphylococcus aureus; test: Antibacterial activity against methicillin-resistant Staphylococcus aureus 221014 clinical isolate after 20 to 24 hrs by two-fold microdilution method
# [22] = tested on: Staphylococcus aureus; test: Antibacterial activity against methicillin-resistant Staphylococcus aureus 1113041 clinical isolate after 20 to 24 hrs by two-fold microdilution method
# [23] = tested on: Staphylococcus aureus; test: Antibacterial activity against methicillin-resistant Staphylococcus aureus 109016 clinical isolate after 20 to 24 hrs by two-fold microdilution method
# [24] = tested on: Staphylococcus aureus; test: Antibacterial activity against methicillin-resistant Staphylococcus aureus 614019 clinical isolate after 20 to 24 hrs by two-fold microdilution method
# [25] = tested on: Staphylococcus aureus; test: Antibacterial activity against methicillin-resistant Staphylococcus aureus GLH15 clinical isolate after 20 to 24 hrs by two-fold microdilution method
# [26] = tested on: Staphylococcus aureus; test: Antibacterial activity against methicillin-resistant Staphylococcus aureus 414244 clinical isolate after 20 to 24 hrs by two-fold microdilution method
# [27] = tested on: Staphylococcus aureus; test: Antibacterial activity against methicillin-resistant Staphylococcus aureus 1023043 clinical isolate after 20 to 24 hrs by two-fold microdilution method
# [28] = tested on: Staphylococcus aureus; test: Antibacterial activity against methicillin-resistant Staphylococcus aureus 12308 clinical isolate after 20 to 24 hrs by two-fold microdilution method
# [29] = tested on: Staphylococcus aureus; test: Antibacterial activity against methicillin-resistant Staphylococcus aureus 110834 clinical isolate after 20 to 24 hrs by two-fold microdilution method
# [30] = tested on: Staphylococcus aureus; test: Antibacterial activity against methicillin-resistant Staphylococcus aureus 110328-1 clinical isolate after 20 to 24 hrs by two-fold microdilution method
# [31] = tested on: Staphylococcus aureus; test: Antibacterial activity against methicillin-resistant Staphylococcus aureus 519028 clinical isolate after 20 to 24 hrs by two-fold microdilution method
# [32] = tested on: Staphylococcus aureus; test: Antibacterial activity against methicillin-resistant Staphylococcus aureus 214026 clinical isolate after 20 to 24 hrs by two-fold microdilution method
# [33] = tested on: Staphylococcus aureus; test: Antibacterial activity against methicillin-resistant Staphylococcus aureus 304243 clinical isolate after 20 to 24 hrs by two-fold microdilution method
# [34] = tested on: Staphylococcus aureus; test: Antibacterial activity against methicillin-resistant Staphylococcus aureus 122045 clinical isolate after 20 to 24 hrs by two-fold microdilution method
# [35] = tested on: Staphylococcus aureus; test: Antibacterial activity against methicillin-resistant Staphylococcus aureus 3250299 clinical isolate after 20 to 24 hrs by two-fold microdilution method
# [36] = tested on: Staphylococcus aureus; test: Antibacterial activity against methicillin-resistant Staphylococcus aureus 111625 clinical isolate after 20 to 24 hrs by two-fold microdilution method
# [37] = tested on: Staphylococcus aureus; test: Antibacterial activity against methicillin-resistant Staphylococcus aureus 1216052 clinical isolate after 20 to 24 hrs by two-fold microdilution method
# [38] = tested on: Staphylococcus aureus; test: Antibacterial activity against methicillin-resistant Staphylococcus aureus 121969 clinical isolate after 20 to 24 hrs by two-fold microdilution method
# [39] = tested on: Staphylococcus aureus; test: Antibacterial activity against methicillin-resistant Staphylococcus aureus 1214023 clinical isolate after 20 to 24 hrs by two-fold microdilution method
# [40] = tested on: Staphylococcus aureus; test: Antibacterial activity against methicillin-resistant Staphylococcus aureus 829034 clinical isolate after 20 to 24 hrs by two-fold microdilution method
# [41] = tested on: Staphylococcus aureus; test: Antibacterial activity against methicillin-resistant Staphylococcus aureus 518036 clinical isolate after 20 to 24 hrs by two-fold microdilution method
# [42] = tested on: Staphylococcus aureus; test: Antibacterial activity against methicillin-resistant Staphylococcus aureus 20534 clinical isolate after 20 to 24 hrs by two-fold microdilution method
# [43] = tested on: Staphylococcus aureus; test: Antibacterial activity against methicillin-resistant Staphylococcus aureus 221022 clinical isolate after 20 to 24 hrs by two-fold microdilution method
# [44] = tested on: Staphylococcus aureus; test: Antibacterial activity against methicillin-resistant Staphylococcus aureus 1012039 clinical isolate after 20 to 24 hrs by two-fold microdilution method
# [45] = tested on: Staphylococcus aureus; test: Antibacterial activity against methicillin-resistant Staphylococcus aureus 530231 clinical isolate after 20 to 24 hrs by two-fold microdilution method
# [46] = tested on: Staphylococcus aureus; test: Antibacterial activity against methicillin-resistant Staphylococcus aureus 10844 clinical isolate after 20 to 24 hrs by two-fold microdilution method
# [47] = tested on: Staphylococcus aureus; test: Antibacterial activity against methicillin-resistant Staphylococcus aureus 1019240 clinical isolate after 20 to 24 hrs by two-fold microdilution method
smiles,measurement,setting,value
CN1CCN(CCCCCCOC(=O)c2c3c(n4cc(Br)ccc24)C(=O)c2ncccc2C3=O)CC1,MIC,[1],0.016 µg/mL
same,MIC,[2],0.063 µg/mL
same,MIC,[3],0.063 µg/mL
same,MIC,[4],0.25 µg/mL
same,MIC,[5],0.125 µg/mL
same,MIC,[6],0.5 µg/mL
same,MIC,[7],0.5 µg/mL
same,MIC,[8],16 µg/mL
same,MIC,[9],0.063 µg/mL
same,MIC50,[10],0.125 µg/mL
same,MIC90,[10],0.5 µg/mL
same,MIC,[11],0.25 µg/mL
same,MIC,[12],0.125 µg/mL
same,MIC,[13],0.125 µg/mL
same,MIC,[14],0.063 µg/mL
same,MIC,[15],0.016 µg/mL
same,MIC,[16],0.125 µg/mL
same,MIC,[17],0.125 µg/mL
same,MIC,[18],0.125 µg/mL
same,MIC,[19],0.5 µg/mL
same,MIC,[20],0.25 µg/mL
same,MIC,[21],0.125 µg/mL
same,MIC,[22],0.125 µg/mL
same,MIC,[23],0.031 µg/mL
same,MIC,[24],0.125 µg/mL
same,MIC,[25],0.125 µg/mL
same,MIC,[26],0.063 µg/mL
same,MIC,[27],0.125 µg/mL
same,MIC,[28],0.063 µg/mL
same,MIC,[29],0.125 µg/mL
same,MIC,[30],≤ 0.0078 µg/mL
same,MIC,[31],0.125 µg/mL
same,MIC,[32],0.031 µg/mL
same,MIC,[33],0.25 µg/mL
same,MIC,[34],0.063 µg/mL
same,MIC,[35],0.063 µg/mL
same,MIC,[36],0.125 µg/mL
same,MIC,[37],16 µg/mL
same,MIC,[38],0.125 µg/mL
same,MIC,[39],0.063 µg/mL
same,MIC,[40],0.5 µg/mL
same,MIC,[41],0.125 µg/mL
same,MIC,[42],0.125 µg/mL
same,MIC,[43],0.125 µg/mL
same,MIC,[44],0.125 µg/mL
same,MIC,[45],0.5 µg/mL
same,MIC,[46],≤ 0.0078 µg/mL
same,MIC,[47],0.25 µg/mL
